Results as given in patent US20190091175A1, “METHOD OF REDUCTION […] TREATING DRAVET SYNDROME” (ZOGENIX INTERNATIONAL LIMITED, priority 2017, published 2019).

How the values were obtained:
[1] = test system: patients with Dravet syndrome; conditions: long-term fenfluramine treatment; cited from earlier work
[2] = test system: subjects with Dravet syndrome; assay: Study 1: Phase 3 double-blind placebo-controlled study of liquid fenfluramine formulation (ZX008) in Dravet syndrome; type: in vivo, human
Procedure: The first 119 subjects to be randomized in both identical studies combined were analyzed and reported as Study 1 (FIG. 1), covered by a Statistical Analysis Plan (SAP).
Primary and key secondary endpoints in the Study 1 SAP were pre-determined. All patients were treated twice per day over a period of 14 weeks using an oral syringe to administer the formulation. The treatment period included a two-week titration period and a 12-week maintenance period.
The initial results of Study 1 are outlined below. The randomized, double blind, placebo controlled, Phase 3 study enrolled 119 patients across sites in the United States, Canada, Europe and Australia. The median age of patients was 8 years, the mean age of patients was 9 years (range, 2-18 years) (FIG. 2).
Patients were titrated to their target dose over two weeks, and then remained at that fixed dose for 12 weeks. The mean baseline convulsive seizure frequency across the study groups was approximately 40 seizures per month. 110 (92%) patients completed the study (85% 0.8 mg/kg/day; 100% 0.2 mg/kg/day; 93% placebo).
The mean number of convulsive seizure free days, defined as a day for which diary data are available and no convulsive seizures have been reported, was determined for each treatment group during the Baseline and T+M Periods. Using a parametric analysis, comparisons for the ZX008 groups to placebo were estimated from an ANCOVA model with treatment group (3 levels) and age group (<6 years, ≥6 years) as factors, log baseline number of convulsive seizure free days as a covariate and log convulsive seizure free days (Titration+Maintenance, or Maintenance Period) as response. The mean (SD) number of convulsive seizure free days per 28 days during the Baseline Period was 12.6 (7.68), 15.7 (6.80), and 14.6 (7.59) for the placebo, 0.2 and 0.8 mg/kg/day groups, respectively. […] The mean (SD) number of convulsive seizure free days for the 0.2 mg/kg/day group was 17.9 (8.04) days, which was numerically greater than placebo, but was not statistically significant (p=0.514). […]

[3] = test system: self-induced photosensitive seizures; conditions: four cases; cited from earlier work
[4] = test system: pattern sensitivity-induced seizures; conditions: one child; cited from earlier work
[5] = test system: children with refractory epilepsy; conditions: 0.5 to 1 mg/kg/day; cited from earlier work

## CCNC(C)Cc1cccc(C(F)(F)F)c1 (racemic) [Fenfluramine, (RS)-N-ethyl-1-[3-(trifluoromethyl)phenyl]propan-2-amine]
[1]
  heart valve defects by echocardiography: No clinically relevant defects were identified
[2]; 0.8 mg/kg/day group
  subjects with an adverse event leading to study termination / discontinuation: Five
[2]; oral, 0.2 and 0.8 mg/kg/day, 14 weeks
  tolerability: generally well-tolerated
[2]; throughout the study
  prospective cardiac safety monitoring (clinical, echocardiographic): no clinical or echocardiographic evidence of cardiac valvulopathy or pulmonary hypertension
[3]
  response of self-induced photosensitive seizures: responded to treatment
[4]
  effect on self-induced seizures resistant to anticonvulsive treatment: successfully terminated these self-induced seizures
[5]
  effect on number of seizures: reduction in the number of seizures
